Each structure is given as a SMILES string.

The values that follow come from patent publication US20070104649A1, “Optically fluorescent nanoparticles” (priority 2005, published 2007).

The nature of the data set: UV-Vis absorption spectra of co-aggregate (J-aggregate) formation. Type of data set: physicochemical. As to conditions: non-aggregated dye. On the procedure:
An aqueous solution of 0.1% (w/v) PEI (1.8, 10, 70, or 750 kDa) is gently stirred, and an aqueous solution of 0.02% (w/v) TITCC is instantly added. This composition is further agitated at about 4° C. for about 30-45 minutes under UV protection. The aggregation progress is monitored by UV-Vis spectra starting from 900 nm down to 600 nm.
This is confirmed by the absence of the starting wavelength of 756 nm of the pure dye, and by the new wavelength maximum at approximately 800 nm from the J-aggregates. In case of 100 and 125% surplus of PEI, the two wavelength maxima indicate that the dye is only partially bound as J-aggregate. Therefore, the wavelength of the pure dye and the wavelength maximum of the J-aggregates can be detected side by side. All measured samples contained the same concentration of dye. The absorption is reduced due to the quenching effects in the J-aggregates. UV-Vis spectra were recorded by UV-2401-PC spectrophotometer (Shimadzu Corp.).
This may be due to a more compact dye-polymer-complex if fewer cationic charges for stabilisation are available. Vice versa, the complexes are less compact having a greater amount of polymer which results in a smaller shift to approximately 795 nm.

With `CC(C=CC=C1N(CCS(=O)(=O)[O-])c2ccc(S(=O)(=O)[O-])cc2C1(C)C)=CC=CC1=[N+](CCS(=O)(=O)[O-])c2ccc(S(=O)(=O)[O-])cc2C1(C)C.[Na+].[Na+].[Na+]` [TITCC, trisodium-3,3-dimethyl-2-{4-methyl-7-[3,3-dimethyl-5-sulfonato-1-(2-sulfonatoethyl)-3H-indolium-2-yl]hepta-2,4,6-trien-1-ylidene}-1-(2-sulfonatoethyl)-2,3-dihydro-1H-indole-5-sulfonate, inner salt], the “absorption wavelength maximum of the pure dye” value is given as 756 nm.
